Consider 16 compounds from patent publication US11613527B2, “Enzyme inhibitors” (KalVista Pharmaceuticals Limited, priority 2019, dated 2023).

The target of one series is Human KLK1 (Homo sapiens (Human), UniProt P06870). Nature of the series: Determination of the IC50 for KLK1 (fluorogenic substrate H-DVal-Leu-Arg-AFC). The class given is biochemical. The procedure, abridged: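 Inhibition read as initial rate via optical absorbance change at 410 nm, giving IC50. Reactions combined human KLK1, the substrate H-DVal-Leu-Arg-AFC and varied compound concentrations at 25° C.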
Human KLK1, sequence (P06870 25-262): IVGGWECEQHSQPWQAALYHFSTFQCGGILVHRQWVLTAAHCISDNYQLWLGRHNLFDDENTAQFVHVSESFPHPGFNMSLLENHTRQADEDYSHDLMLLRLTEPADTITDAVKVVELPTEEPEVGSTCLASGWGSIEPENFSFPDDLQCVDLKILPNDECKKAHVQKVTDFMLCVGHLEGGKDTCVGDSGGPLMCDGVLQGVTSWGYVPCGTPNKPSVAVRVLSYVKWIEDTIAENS

In the next series the target is Human FXIa (Homo sapiens (Human), UniProt P03951). Nature of the series: Determination of the % inhibition for FXIa (fluorogenic substrate Z-Gly-Pro-Arg-AFC; 40 μM or IC50). Type of series: biochemical. The procedure, abridged:
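Inhibition measured from initial reaction rate, followed as absorbance change at 410 nm, with substrate Z-Gly-Pro-Arg-AFC at 25 °C. Compound tested at a single 40 μM dose for percent inhibition, or across several concentrations to derive IC50 against human FXIa.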

Series [1] is described as follows: Solubility after 24 hrs in Fasted State Simulated Intestinal Fluid (FaSSIF). Type of series: physicochemical. The note with it: Fasted State Simulated Intestinal Fluid (FaSSIF), thermodynamic from solid, 24 hrs at 37° C., nominal concentration 1 mg/mL (as free base). The procedure: Selected compounds were further screened for solubility in Fasted State Simulated Intestinal Fluid (FaSSIF).
Approximately 1 mg of test compound is accurately weighed into a 2 mL vial. Volumes of the FaSSIF solution (pre-heated to 37° C.) were added to a vial to give a nominal concentration of 1 mg/mL (as free base). The FaSSIF solution was prepared on the day of use. The samples were vortexed before being placed in a Titramax 1000 shaker for 24 hrs at 37° C. and approximately 500 rpm. The samples were transferred to eppendorf tubes and centrifuged at 15,000 g (r.c.f.) for 10 min at 37° C. and analysed for concentration of test compound by LCMS.

Another series concerns the target Human plasma kallikrein (Homo sapiens (Human), UniProt P03952). Nature of the series: Determination of the IC50 for plasma kallikrein (fluorogenic substrate H-DPro-Phe-Arg-AFC). The class given is biochemical. Conditions: class symbols A-D, read-out: IC50 (human PKal). The procedure, abridged:
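IC50 values come from initial rates, monitored as the change in absorbance at 410 nm, of residual enzyme activity. Test compound was present at various concentrations with the fluorogenic substrate H-DPro-Phe-Arg-AFC, and the reaction was run at 25° C.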

Converted amounts (≈) assume the structure as drawn.

Human FXIa, sequence (P03951 388-625): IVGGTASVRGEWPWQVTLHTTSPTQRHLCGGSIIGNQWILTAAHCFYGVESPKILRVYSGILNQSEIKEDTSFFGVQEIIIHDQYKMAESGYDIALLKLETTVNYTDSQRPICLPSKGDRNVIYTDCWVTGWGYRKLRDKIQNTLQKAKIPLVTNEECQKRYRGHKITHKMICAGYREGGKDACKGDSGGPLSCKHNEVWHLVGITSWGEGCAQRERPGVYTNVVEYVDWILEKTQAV
Human FXIa, sequence (P03951 19-387 partner): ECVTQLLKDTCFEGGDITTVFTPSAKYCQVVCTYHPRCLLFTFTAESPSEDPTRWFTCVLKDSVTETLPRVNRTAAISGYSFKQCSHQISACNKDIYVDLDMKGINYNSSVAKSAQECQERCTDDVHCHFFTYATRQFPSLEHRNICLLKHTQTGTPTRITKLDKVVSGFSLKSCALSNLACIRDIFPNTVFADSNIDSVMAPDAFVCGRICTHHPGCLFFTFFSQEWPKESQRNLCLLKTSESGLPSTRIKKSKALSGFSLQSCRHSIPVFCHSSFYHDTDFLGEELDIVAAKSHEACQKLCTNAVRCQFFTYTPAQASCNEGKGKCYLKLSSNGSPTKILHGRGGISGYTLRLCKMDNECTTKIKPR
Human plasma kallikrein, sequence (P03952 391-638): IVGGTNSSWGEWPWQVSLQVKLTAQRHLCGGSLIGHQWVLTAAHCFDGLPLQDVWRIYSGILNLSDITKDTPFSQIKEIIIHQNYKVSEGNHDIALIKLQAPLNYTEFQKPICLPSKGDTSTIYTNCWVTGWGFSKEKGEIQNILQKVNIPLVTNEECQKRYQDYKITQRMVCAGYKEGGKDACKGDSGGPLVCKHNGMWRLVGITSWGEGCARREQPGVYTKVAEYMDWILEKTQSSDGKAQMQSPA
Human plasma kallikrein, sequence (P03952 20-390 partner): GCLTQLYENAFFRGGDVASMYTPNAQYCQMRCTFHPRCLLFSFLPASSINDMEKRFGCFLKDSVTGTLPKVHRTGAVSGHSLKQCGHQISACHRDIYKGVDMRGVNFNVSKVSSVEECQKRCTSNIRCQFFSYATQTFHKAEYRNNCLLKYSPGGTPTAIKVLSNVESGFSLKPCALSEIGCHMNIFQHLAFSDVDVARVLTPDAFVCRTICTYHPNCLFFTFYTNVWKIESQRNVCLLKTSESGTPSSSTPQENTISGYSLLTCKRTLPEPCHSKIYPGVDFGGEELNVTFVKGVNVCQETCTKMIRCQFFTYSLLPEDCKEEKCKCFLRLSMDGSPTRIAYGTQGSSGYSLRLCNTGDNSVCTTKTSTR

A word on the IC50: it is the concentration that gives 50% inhibition. Usually solubility stands for the concentration that dissolves in the medium under given conditions. On to `CCN1CCc2ccc(Cn3cc(C(=O)NCc4c(-n5cnc(C(F)F)n5)ccc(OC)c4F)c(COC)n3)cc2C1` [Example 26, N-({6-[3-(difluoromethyl)-1,2,4-triazol-1-yl]-2-fluoro-3-methoxyphenyl}methyl)-1-[(2-ethyl-3,4-dihydro-1H-isoquinolin-7-yl)methyl]-3-(methoxymethyl)pyrazole-4-carboxamide], for which the 50% inhibitory concentration (IC50) against Human KLK1 is > 40 µM; on Human FXIa, > 40 µM; on Human plasma kallikrein, < 0.01 µM. For the same compound, the solubility at 24 h in series [1] was > 1000 µg/mL.

For `CCN1CCc2ccc(Cn3cc(C(=O)NCc4c(-n5ccc(C#N)n5)ccc(OC)c4F)c(COC)n3)cc2C1` [Example 27, N-{[6-(3-cyanopyrazol-1-yl)-2-fluoro-3-methoxyphenyl]methyl}-1-[(2-ethyl-3,4-dihydro-1H-isoquinolin-7-yl)methyl]-3-(methoxymethyl)pyrazole-4-carboxamide], the figures for the IC50 on Human KLK1, at Human FXIa and on Human plasma kallikrein were > 40 µM, 33.9 µM and < 0.01 µM, respectively. Moreover, the solubility at 24 h in series [1] was 960 µg/mL (≈ 1720 µM).

With `COCc1nn(Cc2ccc3c(c2)CN(C(C)C)CC3)cc1C(=O)NCc1c(-n2cc(C#N)cn2)ccc(OC)c1F` [Example 30, N-{[6-(4-cyanopyrazol-1-yl)-2-fluoro-3-methoxyphenyl]methyl}-1-[(2-isopropyl-3,4-dihydro-1H-isoquinolin-7-yl)methyl]-3-(methoxymethyl)pyrazole-4-carboxamide], the IC50 is > 40 µM on Human KLK1, 39.6 µM against Human FXIa and < 0.01 µM at Human plasma kallikrein. In series [1], this compound came in with a solubility at 24 h of 920 µg/mL (≈ 1610 µM).

Turning to `COCc1nn(Cc2ccc3c(c2)CCN(C)C3)cc1C(=O)NCc1c(-n2cc(C(F)F)nn2)ccc(OC)c1F` [Example 34, N-({6-[4-(difluoromethyl)-1,2,3-triazol-1-yl]-2-fluoro-3-methoxyphenyl}methyl)-3-(methoxymethyl)-1-[(2-methyl-3,4-dihydro-1H-isoquinolin-6-yl)methyl]pyrazole-4-carboxamide], the IC50 at Human KLK1 is > 40 µM; on Human FXIa, > 40 µM; on Human plasma kallikrein it was < 0.01 µM. Also, the solubility at 24 h in series [1] was > 1000 µg/mL.

Regarding `COCc1nn(Cc2ccc3c(c2)CCN(C2CC2)C3)cc1C(=O)NCc1c(-n2cc(C)nn2)ccc(OC)c1F` [Example 35, 1-[(2-cyclopropyl-3,4-dihydro-1H-isoquinolin-6-yl)methyl]-N-{[2-fluoro-3-methoxy-6-(4-methyl-1,2,3-triazol-1-yl)phenyl]methyl}-3-(methoxymethyl)pyrazole-4-carboxamide], the figures for the IC50 against Human KLK1, on Human FXIa and on Human plasma kallikrein were > 40 µM, > 40 µM and 0.03 to 0.1 µM, respectively. In series [1], this compound gave a solubility at 24 h of 510 µg/mL (≈ 911 µM).

Take `COCc1nn(Cc2ccc3c(c2)CCN(C)C3)cc1C(=O)NCc1c(-n2cc(C)nn2)ccc(OC)c1F` [Example 36, N-{[2-fluoro-3-methoxy-6-(4-methyl-1,2,3-triazol-1-yl)phenyl]methyl}-3-(methoxymethyl)-1-[(2-methyl-3,4-dihydro-1H-isoquinolin-6-yl)methyl]pyrazole-4-carboxamide]: the IC50 on Human KLK1 is > 4 µM; against Human FXIa it was > 4 µM; on Human plasma kallikrein it was < 0.01 µM. In series [1], this compound gave a solubility at 24 h of 880 µg/mL (≈ 1650 µM).

As for `COCc1nn(Cc2ccc3c(c2)CCN(C2CCC2)C3)cc1C(=O)NCc1c(-n2cc(C)nn2)ccc(OC)c1F` [Example 40, 1-[(2-cyclobutyl-3,4-dihydro-1H-isoquinolin-6-yl)methyl]-N-{[2-fluoro-3-methoxy-6-(4-methyl-1,2,3-triazol-1-yl)phenyl]methyl}-3-(methoxymethyl)pyrazole-4-carboxamide], the results for the IC50 against Human KLK1, at Human FXIa and on Human plasma kallikrein were > 40 µM, > 40 µM and 0.01 to 0.03 µM, respectively. In series [1], the solubility at 24 h is > 1000 µg/mL.

Consider `COCc1nn(Cc2ccc3c(c2)CCN(C)C3)cc1C(=O)NCc1c(-n2cnc(C(F)F)n2)ccc(OC)c1F` [Example 41, N-({6-[3-(difluoromethyl)-1,2,4-triazol-1-yl]-2-fluoro-3-methoxyphenyl}methyl)-3-(methoxymethyl)-1-[(2-methyl-3,4-dihydro-1H-isoquinolin-6-yl)methyl]pyrazole-4-carboxamide], for which the values for the IC50 against Human KLK1, on Human FXIa and at Human plasma kallikrein were > 40 µM, > 40 µM and < 0.01 µM, respectively. Besides, in series [1], the solubility at 24 h is > 1000 µg/mL.

In the case of `COCc1nn(Cc2ccc3c(c2)CCN(C)C3)cc1C(=O)NCc1c(-n2cnc(C(F)(F)F)n2)ccc(OC)c1F` [Example 42, N-({2-fluoro-3-methoxy-6-[3-(trifluoromethyl)-1,2,4-triazol-1-yl]phenyl}methyl)-3-(methoxymethyl)-1-[(2-methyl-3,4-dihydro-1H-isoquinolin-6-yl)methyl]pyrazole-4-carboxamide], the IC50 at Human KLK1 is > 40 µM; at Human FXIa, > 40 µM; at Human plasma kallikrein it was < 0.01 µM. This compound returned a solubility at 24 h in series [1] of 870 µg/mL (≈ 1480 µM).

Consider `COCc1nn(Cc2ccc3c(c2)CCN(C)C3)cc1C(=O)NCc1c(-n2ccc(C#N)n2)ccc(OC)c1F` [Example 43, N-{[6-(3-cyanopyrazol-1-yl)-2-fluoro-3-methoxyphenyl]methyl}-3-(methoxymethyl)-1-[(2-methyl-3,4-dihydro-1H-isoquinolin-6-yl)methyl]pyrazole-4-carboxamide], for which the values for the IC50 at Human KLK1, against Human FXIa and on Human plasma kallikrein were > 40 µM, 31.8 µM and < 0.01 µM, respectively. In addition, in series [1], the solubility at 24 h is 800 µg/mL (≈ 1470 µM).

For `COCc1nn(Cc2ccc3c(c2)CCN(C(C)C)C3)cc1C(=O)NCc1c(-n2cnc(C(F)F)n2)ccc(OC)c1F` [Example 44, N-({6-[3-(difluoromethyl)-1,2,4-triazol-1-yl]-2-fluoro-3-methoxyphenyl}methyl)-1-[(2-isopropyl-3,4-dihydro-1H-isoquinolin-6-yl)methyl]-3-(methoxymethyl)pyrazole-4-carboxamide], the figures for the concentration for half-maximal inhibition (IC50) against Human KLK1, against Human FXIa and on Human plasma kallikrein were > 40 µM, > 40 µM and < 0.01 µM, respectively. Besides, the solubility at 24 h in series [1] was > 1000 µg/mL.

`COCc1nn(Cc2ccc3c(c2)CCN(C(C)C)C3)cc1C(=O)NCc1c(-n2cnc(C(F)(F)F)n2)ccc(OC)c1F` [Example 45, N-({2-fluoro-3-methoxy-6-[3-(trifluoromethyl)-1,2,4-triazol-1-yl]phenyl}methyl)-1-[(2-isopropyl-3,4-dihydro-1H-isoquinolin-6-yl)methyl]-3-(methoxymethyl)pyrazole-4-carboxamide]: the IC50 on Human KLK1 was > 40 µM; on Human FXIa, > 40 µM; on Human plasma kallikrein it was < 0.01 µM. The compound also yielded a solubility at 24 h in series [1] of 840 µg/mL (≈ 1360 µM).

For the compound `CCN1CCc2cc(Cn3cc(C(=O)NCc4c(-n5cnc(C(F)F)n5)ccc(OC)c4F)c(COC)n3)ccc2C1` [Example 50, N-({6-[3-(difluoromethyl)-1,2,4-triazol-1-yl]-2-fluoro-3-methoxyphenyl}methyl)-1-[(2-ethyl-3,4-dihydro-1H-isoquinolin-6-yl)methyl]-3-(methoxymethyl)pyrazole-4-carboxamide], the half-maximal inhibitory concentration (IC50) on Human KLK1 is > 40 µM; against Human FXIa, > 40 µM; at Human plasma kallikrein, < 0.01 µM. The compound also returned a solubility at 24 h in series [1] of 720 µg/mL (≈ 1230 µM).

For `CCN1CCc2cc(Cn3cc(C(=O)NCc4c(-n5cnc(C(F)(F)F)n5)ccc(OC)c4F)c(COC)n3)ccc2C1` [Example 51, 1-[(2-ethyl-3,4-dihydro-1H-isoquinolin-6-yl)methyl]-N-({2-fluoro-3-methoxy-6-[3-(trifluoromethyl)-1,2,4-triazol-1-yl]phenyl}methyl)-3-(methoxymethyl)pyrazole-4-carboxamide], the IC50 at Human KLK1 was > 40 µM; against Human FXIa it was > 40 µM; on Human plasma kallikrein it was < 0.01 µM. This compound also displayed a solubility at 24 h in series [1] of 770 µg/mL (≈ 1280 µM).

In the case of `COCc1nn(Cc2cnc3c(c2)CCN(C(C)C)C3)cc1C(=O)NCc1c(-n2cc(C)nn2)ccc(OC)c1F` [Example 117, N-{[2-fluoro-3-methoxy-6-(4-methyl-1,2,3-triazol-1-yl)phenyl]methyl}-1-[(7-isopropyl-6,8-dihydro-5H-1,7-naphthyridin-3-yl)methyl]-3-(methoxymethyl)pyrazole-4-carboxamide], the IC50 was > 40 µM against Human KLK1, > 40 µM against Human FXIa and 0.01 to 0.03 µM at Human plasma kallikrein. This compound also displayed a solubility at 24 h in series [1] of 900 µg/mL (≈ 1600 µM).

As to `COCc1nn(Cc2cc3c(cc2F)CCN(C)C3)cc1C(=O)NCc1c(-n2cc(C)nn2)ccc(OC)c1F` [Example 118, 1-[(6-fluoro-2-methyl-3,4-dihydro-1H-isoquinolin-7-yl)methyl]-N-{[2-fluoro-3-methoxy-6-(4-methyl-1,2,3-triazol-1-yl)phenyl]methyl}-3-(methoxymethyl)pyrazole-4-carboxamide], the IC50 against Human KLK1 was > 40 µM; against Human FXIa it was 9.9 µM; at Human plasma kallikrein it was < 0.01 µM. Besides, the solubility at 24 h in series [1] is 930 µg/mL (≈ 1690 µM).
